# Data as given in patent US10251892B2, “Bicyclic heterocycles as FGFR4 inhibitors” (Incyte Corporation, priority 2015, dated 2019).
# Target: FGFR3 enzyme (Homo sapiens (Human), UniProt P22607)
# Test: FGFR Enzymatic Assay (peptide phosphorylation, FRET), FGFR3
# Assay type: biochemical
# Conditions: IC50 ratio showing FGFR3 selectivity; pre-incubated for 4 hours
# Experimental: The inhibitor potency of the exemplified compounds was measured in an enzyme assay that measures peptide phosphorylation using FRET measurements to detect product formation. Inhibitors were serially diluted in DMSO and a volume of 0.5 μL was transferred to the wells of a 384-well plate.
# GraphPad prism3 was used to analyze the data.
# FGFR3 enzyme, sequence (P22607 23-806): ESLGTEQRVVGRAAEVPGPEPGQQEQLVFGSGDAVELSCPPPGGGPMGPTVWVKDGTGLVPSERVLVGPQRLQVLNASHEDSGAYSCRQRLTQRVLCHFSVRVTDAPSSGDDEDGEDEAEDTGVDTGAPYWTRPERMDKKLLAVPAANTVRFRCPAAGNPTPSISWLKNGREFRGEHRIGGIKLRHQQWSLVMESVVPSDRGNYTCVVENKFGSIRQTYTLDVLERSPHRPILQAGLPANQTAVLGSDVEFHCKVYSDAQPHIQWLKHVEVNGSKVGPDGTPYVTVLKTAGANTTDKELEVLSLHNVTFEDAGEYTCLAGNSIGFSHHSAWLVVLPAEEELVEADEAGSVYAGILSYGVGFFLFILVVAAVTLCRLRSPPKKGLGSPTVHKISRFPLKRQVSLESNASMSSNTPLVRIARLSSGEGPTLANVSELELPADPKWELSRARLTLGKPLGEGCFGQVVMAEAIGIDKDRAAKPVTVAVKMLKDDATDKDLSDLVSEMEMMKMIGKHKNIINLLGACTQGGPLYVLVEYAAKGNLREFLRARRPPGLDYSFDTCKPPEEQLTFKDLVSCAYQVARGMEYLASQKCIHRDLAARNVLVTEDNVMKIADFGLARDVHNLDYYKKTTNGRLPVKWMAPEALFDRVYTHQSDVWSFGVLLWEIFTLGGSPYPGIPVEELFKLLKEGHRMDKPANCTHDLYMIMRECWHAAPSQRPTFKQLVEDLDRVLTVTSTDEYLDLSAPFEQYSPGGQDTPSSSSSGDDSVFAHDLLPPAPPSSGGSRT
FGFR1/FGFR3,FGFR4/FGFR3,SMILES
>5,>10,"COc1cc(OC)c(F)c(N2Cc3cnc(-c4cn(C)nc4C)cc3N(Cc3ccncn3)C2=O)c1F [Example 65, 3-(2,6-difluoro-3,5-dimethoxyphenyl)-7-(1,3-dimethyl-1H-pyrazol-4-yl)-1-(pyrimidin-4-ylmethyl)-3,4-dihydropyrido[4,3-d]pyrimidin-2(1H)-one]"
>5,>1,"COc1cc(OC)c(F)c(N2Cc3cnc(-c4cnn(CC5CCCS(=O)(=O)N5)c4)cc3C3(CC3)C2=O)c1F (centres unmarked) [Example 162, 2′-(2,6-difluoro-3,5-dimethoxyphenyl)-6′-{1-[(1,1-dioxido-1,2-thiazinan-3-yl)methyl]-1H-pyrazol-4-yl}-1′H-spiro[cyclopropane-1,4′-[2,7]naphthyridin]-3′(2′H)-one]"
>5,>5,"COc1cc(OC)c(F)c(N2Cc3cnc(-c4cnn(CCCN5CCOCC5)c4)cc3C3(CC3)C2=O)c1F [Example 151, 2′-(2,6-difluoro-3,5-dimethoxyphenyl)-6′-(1-(3-morpholinopropyl)-1H-pyrazol-4-yl)-1′H-spiro[cyclopropane-1,4′-[2,7]naphthyridin]-3′(2′H)-one]"
>10,>10,"COc1cc(OC)c(F)c(N2Cc3cnc(-c4cn(C)nc4C)cc3N(c3ccc(C#N)cc3)C2=O)c1F [Example 44, 4-(3-(2,6-difluoro-3,5-dimethoxyphenyl)-7-(1,3-dimethyl-1H-pyrazol-4-yl)-2-oxo-3,4-dihydropyrido[4,3-d]pyrimidin-1(2H)-yl)benzonitrile]"
>10,>5,"CNC(=O)c1ccc(CN2C(=O)N(c3c(F)c(OC)cc(OC)c3F)Cc3cnc(-c4cn(C)nc4C)cc32)cc1 [Example 62, 4-((3-(2,6-difluoro-3,5-dimethoxyphenyl)-7-(1,3-dimethyl-1H-pyrazol-4-yl)-2-oxo-3,4-dihydropyrido[4,3-d]pyrimidin-1(2H)-yl)methyl)-N-methylbenzamide]"
>5,>10,"COc1cc(OC)c(F)c(N2Cc3cnc(-c4cn(C)nc4C)cc3N(Cc3ccc(F)cc3)C2=O)c1F [Example 34, 3-(2,6-difluoro-3,5-dimethoxyphenyl)-7-(1,3-dimethyl-1H-pyrazol-4-yl)-1-(4-fluorobenzyl)-3,4-dihydropyrido[4,3-d]pyrimidin-2(1H)-one]"
>5,>5,"CCN1C(=O)N(c2c(F)c(OC)cc(OC)c2F)Cc2cnc(-c3ccc(N4CCOCC4)nc3)cc21 [Example 182, 3-(2,6-difluoro-3,5-dimethoxyphenyl)-1-ethyl-7-(6-morpholinopyridin-3-yl)-3,4-dihydropyrido[4,3-d]pyrimidin-2(1H)-one]"
>1,>5,"CCCN1C(=O)N(c2c(F)c(OC)cc(OC)c2F)Cc2cnc(-c3cn(C)nc3C)cc21 [Example 30, 3-(2,6-difluoro-3,5-dimethoxyphenyl)-7-(1,3-dimethyl-1H-pyrazol-4-yl)-1-propyl-3,4-dihydropyrido[4,3-d]pyrimidin-2(1H)-one]"
>5,>10,"CCN1C(=O)N(c2c(F)c(OC)cc(OC)c2F)Cc2cnc(-c3ccc(C4(C#N)CCC4)cc3)cc21 [Example 181, 1-(4-(3-(2,6-difluoro-3,5-dimethoxyphenyl)-1-ethyl-2-oxo-1,2,3,4-tetrahydropyrido[4,3-d]pyrimidin-7-yl)phenyl)cyclobutanecarbonitrile]"
>10,>10,"CCn1cc(CN2C(=O)N(c3c(F)c(OC)cc(OC)c3F)Cc3cnc(-c4cn(C)nc4C)cc32)cn1 [Example 39, 3-(2,6-difluoro-3,5-dimethoxyphenyl)-7-(1,3-dimethyl-1H-pyrazol-4-yl)-1-((1-ethyl-1H-pyrazol-4-yl)methyl)-3,4-dihydropyrido[4,3-d]pyrimidin-2(1H)-one]"
>10,>10,"COc1cc(OC)c(F)c(N2Cc3cnc(-c4cn(C)nc4C)cc3N(c3ccnnc3)C2=O)c1F [Example 57, 3-(2,6-difluoro-3,5-dimethoxyphenyl)-7-(1,3-dimethyl-1H-pyrazol-4-yl)-1-(pyridazin-4-yl)-3,4-dihydropyrido[4,3-d]pyrimidin-2(1H)-one]"
>10,>10,"COc1cc(OC)c(F)c(N2Cc3cnc(-c4cn(C)nc4C)cc3N(Cc3nnc(C)o3)C2=O)c1F [Example 46, 3-(2,6-difluoro-3,5-dimethoxyphenyl)-7-(1,3-dimethyl-1H-pyrazol-4-yl)-1-[(5-methyl-1,3,4-oxadiazol-2-yl)methyl]-3,4-dihydropyrido[4,3-d]pyrimidin-2(1H)-one]"
>5,>5,"COc1cc(OC)c(F)c(N2Cc3cnc(-c4cnn(C5CCN(C(C)=O)C5)c4)cc3C3(CC3)C2=O)c1F (centres unmarked) [Example 150, 6′-(1-(1-acetylpyrrolidin-3-yl)-1H-pyrazol-4-yl)-2′-(2,6-difluoro-3,5-dimethoxyphenyl)-1′H-spiro[cyclopropane-1,4′-[2,7]naphthyridin]-3′(2′H)-one]"
>3,>5,"COc1cc(OC)c(F)c(N2Cc3cnc(-c4cn(C)nc4C)cc3N(c3ccc(-c4nnc(C)o4)cc3)C2=O)c1F [Example 115, 3-(2,6-difluoro-3,5-dimethoxyphenyl)-7-(1,3-dimethyl-1H-pyrazol-4-yl)-1-(4-(5-methyl-1,3,4-oxadiazol-2-yl)phenyl)-3,4-dihydropyrido[4,3-d]pyrimidin-2(1H)-one]"
>5,>5,"COc1cc(OC)c(F)c(N2Cc3cnc(-c4cn(C)nc4C)cc3N(Cc3cc(C(C)C)on3)C2=O)c1F [Example 93, 3-(2,6-difluoro-3,5-dimethoxyphenyl)-7-(1,3-dimethyl-1H-pyrazol-4-yl)-1-((5-isopropylisoxazol-3-yl)methyl)-3,4-dihydropyrido[4,3-d]pyrimidin-2(1H)-one]"
>10,>5,"COc1cc(OC)c(F)c(N2Cc3cnc(-c4cn(C)nc4C)cc3N(c3ccc4ccncc4c3)C2=O)c1F [Example 63, 3-(2,6-difluoro-3,5-dimethoxyphenyl)-7-(1,3-dimethyl-1H-pyrazol-4-yl)-1-(isoquinolin-7-yl)-3,4-dihydropyrido[4,3-d]pyrimidin-2(1H)-one]"
>5,>10,"COc1cc(OC)c(F)c(N2Cc3cnc(-c4ccc(C5(C#N)CCC5)nc4)cc3N(c3ccncn3)C2=O)c1F [Example 135, 1-(5-(3-(2,6-difluoro-3,5-dimethoxyphenyl)-2-oxo-1-(pyrimidin-4-yl)-1,2,3,4-tetrahydropyrido[4,3-d]pyrimidin-7-yl)pyridin-2-yl)cyclobutanecarbonitrile]"
>1,>5,"COc1cc(OC)c(F)c(N2Cc3cnc(-c4cn(C)nc4C)cc3N(c3ccc4ncsc4c3)C2=O)c1F [Example 41, 1-(1,3-benzothiazol-6-yl)-3-(2,6-difluoro-3,5-dimethoxyphenyl)-7-(1,3-dimethyl-1H-pyrazol-4-yl)-3,4-dihydropyrido[4,3-d]pyrimidin-2(1H)-one]"
>10,>10,"CCN1C(=O)N(c2c(F)c(OC)cc(OC)c2F)Cc2cnc(-c3ccc(C4(C#N)CCC4)nc3)cc21 [Example 27, 1-(5-(3-(2,6-difluoro-3,5-dimethoxyphenyl)-1-ethyl-2-oxo-1,2,3,4-tetrahydropyrido[4,3-d]pyrimidin-7-yl)pyridin-2-yl)cyclobutanecarbonitrile]"
>5,>10,"CCc1nnc(CN2C(=O)N(c3c(F)c(OC)cc(OC)c3F)Cc3cnc(-c4cn(C)nc4C)cc32)o1 [Example 67, 3-(2,6-difluoro-3,5-dimethoxyphenyl)-7-(1,3-dimethyl-1H-pyrazol-4-yl)-1-((5-ethyl-1,3,4-oxadiazol-2-yl)methyl)-3,4-dihydropyrido[4,3-d]pyrimidin-2(1H)-one]"
>10,>10,"COc1ccc(CN2C(=O)N(c3c(F)c(OC)cc(OC)c3F)Cc3cnc(-c4cn(C)nc4C)cc32)cn1 [Example 59, 3-(2,6-difluoro-3,5-dimethoxyphenyl)-7-(1,3-dimethyl-1H-pyrazol-4-yl)-1-((6-methoxypyridin-3-yl)methyl)-3,4-dihydropyrido[4,3-d]pyrimidin-2(1H)-one]"
>5,>10,"CCCNC(=O)c1ccc(-c2cc3c(cn2)CN(c2c(F)c(OC)cc(OC)c2F)C(=O)N3CC)cn1 [Example 179, 5-(3-(2,6-difluoro-3,5-dimethoxyphenyl)-1-ethyl-2-oxo-1,2,3,4-tetrahydropyrido[4,3-d]pyrimidin-7-yl)-N-propylpicolinamide]"
>5,>10,"COc1cc(OC)c(F)c(N2Cc3cnc(-c4cn(C)nc4C)cc3N(c3cccnc3)C2=O)c1F [Example 86, 3-(2,6-difluoro-3,5-dimethoxyphenyl)-7-(1,3-dimethyl-1H-pyrazol-4-yl)-1-(pyridin-3-yl)-3,4-dihydropyrido[4,3-d]pyrimidin-2(1H)-one]"
>10,>1,"COc1cc(OC)c(F)c(N2Cc3cnc(-c4cn(CCN5CCOCC5)nc4C)cc3C3(CC3)C2=O)c1F [Example 52, 2′-(2,6-difluoro-3,5-dimethoxyphenyl)-6′-(3-methyl-1-(2-morpholinoethyl)-1H-pyrazol-4-yl)-1′H-spiro[cyclopropane-1,4′-[2,7]naphthyridin]-3′(2′H)-one]"

SMILES,FGFR1/FGFR3,FGFR4/FGFR3
"COc1cc(OC)c(F)c(N2Cc3cnc(-c4cn(C)nc4C)cc3N(c3cnn(C4CC4)c3)C2=O)c1F [Example 130, 1-(1-cyclopropyl-1H-pyrazol-4-yl)-3-(2,6-difluoro-3,5-dimethoxyphenyl)-7-(1,3-dimethyl-1H-pyrazol-4-yl)-3,4-dihydropyrido[4,3-d]pyrimidin-2(1H)-one]",>5,>5
